This experiment has as its system isolated rat bladder strips. In words: Inhibition of contractions of isolated rat bladder strips. The settings on record: for inhibition at 30 µM: read-out: % Inhibition of Contractility @ 30 μM; for IC50: 0.5 h. Here is the method: The compounds of the examples were tested to determine their ability to inhibit contractions of isolated rat bladder strips. See Foster, C. […] Malmgren, A. et al. J.Urol.
Male Sprague-Dawley rats (150-200 g) were obtained from ACE animal suppliers. Animals were allowed free access to food and water.
Animals were euthanized by CO2 asphyxiation followed by a bilateral thoracotomy. […] The bladder was opened and then cut into strips 1-2 mm in width and 7-10 mm in length. The strips were subsequently suspended in a 10 ml tissue bath under an initial resting tension of 1.5 g. The strips were held in place by two surgical clips one of which was attached to a fixed hook while the other was attached to an isometric force transducer. […] The carbachol was then washed out and the tissue allowed to relax to its resting level of activity. Following a further 30 minute period of recovery an additional 15 mM KCl were introduced into the tissue bath. […] Following stabilization of this enhanced level of contractile activity, incremental increases in the concentration of test compound or vehicle were introduced into the tissue bath. Contractile activity was measured for each compound or vehicle concentration during the last minute of a 30 minute challenge.
Isometric force developed by the bladder strips was measured using a force transducer and recorded on a polygraph. Contractile activity was assessed by measuring either the average amplitude of the contractions (baseline to peak force) occurring during a one minute period or, preferably, by integrating the contractile activity with respect to time (one minute measuring period).
The percentage inhibition of contractile activity evoked by each concentration of a given test compounds was used to generate a concentration-response curve.

[1] abbreviates: maximum percentage inhibition of contractile activity, 30 μM, strips stimulated with additional 15 mM KCl.
Setting [2] is: concentration eliciting 50% inhibition of pre-drug contractile activity, strips stimulated with additional 15 mM KCl, 30 minute challenge per concentration, read-out: IC50.

Like-named read-outs stand apart in the source and are kept apart here.

In general, inhibition refers to the change of the read-out against control, counted positive when it falls. Turning to `C[C@H](NC(=O)[C@H](Cc1ccccc1)NC(=O)OCc1ccccc1)C(=O)Nc1ccc2oc3c(c2c1)CCCCC3` [Example 58, N-[(BENZYLOXY)CARBONYL]-L-PHENYLALANYL-N^1-7,8,9,10-TETRAHYDRO-6H-BENZO[B]CYCLOHEPTA[D]FURAN-2-YL-L-ALANINAMIDE], the inhibition at 30 µM under setting [1] is 30 to 40%. The term IC50 denotes the concentration that inhibits the measured activity by half. For the compound `CC(=O)N1CCC[C@H]1C(=O)Nc1ccc2oc3c(c2c1)CCCCC3` [Example 60, 1-ACETYL-N-7,8,9,10-TETRAHYDRO-6H-BENZO[B]CYCLOHEPTA[D]FURAN-2-YL-L-PROLINAMIDE], the concentration for half-maximal inhibition (IC50) under setting [2] lay within 1300 to 2500 nM. Consider `CC(CC(=O)Nc1ccc2oc3c(c2c1)CCCCCC3)CC(C)(C)C` (centres unmarked) [Example 66, N-(6,7,8,9,10,11-HEXAHYDROBENZO[B]CYCLOOCTA[D]FURAN-2-YL)-3,5,5-TRIMETHYLHEXANAMIDE], for which, under setting [1], the inhibition at 30 µM fell in the range of 5 to 20%.

`O=C(Nc1ccc2oc3c(c2c1)CCCCCC3)c1cccs1` [Example 67, N-(6,7,8,9,10,11-HEXAHYDROBENZO[B]CYCLOOCTA[D]FURAN-2-YL)THIOPHENE-2-CARBOXAMIDE]: the IC50 under setting [2] was in the range of 600 to 800 nM. Regarding `CC(C)(C)c1ccc(C(=O)Nc2ccc3oc4c(c3c2)CCCCCC4)cc1` [Example 68, 4-TERT-BUTYL-N-(6,7,8,9,10,11-HEXAHYDROBENZO[B]CYCLOOCTA[D]FURAN-2-YL)BENZAMIDE], the inhibition at 30 µM under setting [1] was in the range of 20 to 40%. The same measure, in the same setting: the figure for `Cc1cccc(C(=O)Nc2ccc3oc4c(c3c2)CCCCCC4)c1` [Example 69, N-(6,7,8,9,10,11-HEXAHYDROBENZO[B]CYCLOOCTA[D]FURAN-2-YL)-3-METHYLBENZAMIDE] is 10 to 20%. On the same count and under the same terms, with `O=C(CCC1CCCC1)Nc1ccc2oc3c(c2c1)CCCCCC3` [Example 70, 3-CYCLOPENTYL-N-(6,7,8,9,10,11-HEXAHYDROBENZO[B]CYCLOOCTA[D]FURAN-2-YL)PROPANAMIDE] the figure was 15 to 30%. As for `CCCCCC(=O)Nc1ccc2oc3c(c2c1)CCCCCC3` [Example 71, N-(6,7,8,9,10,11-HEXAHYDROBENZO[B]CYCLOOCTA[D]FURAN-2-YL)HEXANAMIDE], the IC50 under setting [2] was 200 to 1000 nM. Still for that read-out and setting: with `O=C(CCc1ccccc1)Nc1ccc2oc3c(c2c1)CCCCCC3` [Example 72, N-(6,7,8,9,10,11-HEXAHYDROBENZO[B]CYCLOOCTA[D]FURAN-2-YL)-3-PHENYLPROPANAMIDE] the figure was 800 to 2200 nM; with `CC(=O)Nc1ccc2oc3c(c2c1)CCCCCC3` [Example 73, N-(6,7,8,9,10,11-HEXAHYDROBENZO[B]CYCLOOCTA[D]FURAN-2-YL)ACETAMIDE], 400 to 1100 nM. Same read-out and setting: with `O=C(Nc1ccc2oc3c(c2c1)CCCCCC3)c1ccco1` [Example 74, N-(6,7,8,9,10,11-HEXAHYDROBENZO[B]CYCLOOCTA[D]FURAN-2-YL)-2-FURAMIDE] the figure was 10000 to 15000 nM. Regarding `O=C(Cc1ccccc1)Nc1ccc2oc3c(c2c1)CCCCCC3` [Example 75, N-(6,7,8,9,10,11-HEXAHYDROBENZO[B]CYCLOOCTA[D]FURAN-2-YL)-2-PHENYLACETAMIDE], the inhibition at 30 µM lay in the range of 30 to 40%. `COc1cccc(OC)c1C(=O)Nc1ccc2oc3c(c2c1)CCCCCC3` [Example 76, N-(6,7,8,9,10,11-HEXAHYDROBENZO[B]CYCLOOCTA[D]FURAN-2-YL)-2,6-DIMETHOXYBENZAMIDE]: the IC50 under setting [2] lay within 7000 to 14000 nM.

Regarding `O=C(Nc1ccc2oc3c(c2c1)CCCCCC3)c1ccncc1` [Example 77, N-(6,7,8,9,10,11-HEXAHYDROBENZO[B]CYCLOOCTA[D]FURAN-2-YL)ISONICOTINAMIDE], the inhibition at 30 µM under setting [1] lay within 30 to 50%. As for `O=C(Cc1ccncc1)Nc1ccc2oc3c(c2c1)CCCCCC3` [Example 78, N-(6,7,8,9,10,11-HEXAHYDROBENZO[B]CYCLOOCTA[D]FURAN-2-YL)-2-PYRIDIN-4-YLACETAMIDE], the IC50 was in the range of 10000 to 14000 nM.

Compound `O=C(CCl)Nc1ccc2oc3c(c2c1)CCCCCC3` [Example 79, 2-CHLORO-N-6,7,8,9,10,11-HEXAHYDROBENZO[B]CYCLOOCTA[D]FURAN-2-YLACETAMIDE] had an IC50 of 200 to 400 nM. Take `O=C(CO)Nc1ccc2oc3c(c2c1)CCCCCC3` [Example 80, N-6,7,8,9,10,11-HEXAHYDROBENZO[B]CYCLOOCTA[D]FURAN-2-YL-2-HYDROXYACETAMIDE]: under setting [1], the inhibition at 30 µM is 30 to 50%.
